Data reported in ChEMBL document CHEMBL5321200, “Discovery of the GSH responsive "Y-PROTACs" targeting ALK and CDK4/6 as a potential treatment for cancer” (Eur J Med Chem, 2023).
pIC50: −log10 of the molar value. Activity calls are given as the source filed them. No cut-off for these calls is given here.

What was measured:
NCI-H1299 [1] = experiment: Antiproliferative activity against human NCI-H1299 cells assessed as inhibition of cell growth incubated for 3 to 5 days by MTT assay; type: functional, cell-based
NCI-H3122 [2] = experiment: Induction of apoptosis in human NCI-H3122 cells assessed as late apoptotic cells at 1.25 uM incubated for 48 hrs by Annexin V-FITC/propidium iodide staining based flow cytometric analysis (reference value: 1.73%); type: functional
NCI-H3122 [3] = experiment: Induction of apoptosis in human NCI-H3122 cells assessed as viable cells at 2.5 uM incubated for 48 hrs by Annexin V-FITC/propidium iodide staining based flow cytometric analysis (reference value: 94.19%); type: functional; conditions: read-out: Activity
NCI-H3122 [4] = experiment: Induction of apoptosis in human NCI-H3122 cells assessed as necrotic cells at 1.25 uM incubated for 48 hrs by Annexin V-FITC/propidium iodide staining based flow cytometric analysis (reference value: 3.53%); type: functional
[5] = biological target: Protein cereblon/Cyclin-dependent kinase 6 (Homo sapiens) (UniProt Q00534+Q96SW2); experiment: PROTAC activity at CRBN/CDK6 in human NCI-H3122 cells assessed as reduction in CDK6 protein level at 1 uM incubated for 24 hrs by Western blot analysis; type: cell-based
[6] = Cytotoxicity against human L02 cells assessed as inhibition of cell growth incubated for 3 to 5 days by MTT assay; type: toxicity, cell-based
NCI-H3122 [7] = experiment: Cell cycle arrest in human NCI-H3122 cells assessed as accumulation of cells at G2/M phase at 2.5 uM incubated for 24 hrs by propidium iodide staining based flow cytometric analysis (reference value: 18.55%); type: functional
NCI-H2228 [8] = experiment: Antiproliferative activity against human NCI-H2228 cells assessed as inhibition of cell growth incubated for 3 to 5 days by MTT assay; type: functional, cell-based
NCI-H3122 [9] = experiment: Induction of apoptosis in human NCI-H3122 cells assessed as viable cells at 1.25 uM incubated for 48 hrs by Annexin V-FITC/propidium iodide staining based flow cytometric analysis (reference value: 94.19%); type: functional; conditions: read-out: Activity
NCI-H3122 [10] = experiment: Cell cycle arrest in human NCI-H3122 cells assessed as accumulation of cells at G0/G1 phase at 2.5 uM incubated for 24 hrs by propidium iodide staining based flow cytometric analysis (reference value: 45.91%); type: functional
NCI-H3122 [11] = experiment: Induction of apoptosis in human NCI-H3122 cells assessed as late apoptotic cells at 0.312 uM incubated for 48 hrs by Annexin V-FITC/propidium iodide staining based flow cytometric analysis (reference value: 1.73%); type: functional
NCI-H3122 [12] = experiment: Antiproliferative activity against human NCI-H3122 cells assessed as inhibition of cell growth incubated for 3 to 5 days by MTT assay; type: functional, cell-based
NCI-H3122 [13] = experiment: Induction of apoptosis in human NCI-H3122 cells assessed as total apoptotic cells at 2.5 uM incubated for 48 hrs by Annexin V-FITC/propidium iodide staining based flow cytometric analysis relative to control; type: functional
NCI-H3122 [14] = experiment: Induction of apoptosis in human NCI-H3122 cells assessed as late apoptotic cells at 0.625 uM incubated for 48 hrs by Annexin V-FITC/propidium iodide staining based flow cytometric analysis (reference value: 1.73%); type: functional
NCI-H3122 [15] = experiment: Antiproliferative activity against human NCI-H3122 cells assessed as inhibition of cell growth pretreated with GSH followed by compound addition and incubated for 3 to 5 days by MTT assay; type: functional, cell-based
NCI-H3122 [16] = experiment: Induction of apoptosis in human NCI-H3122 cells assessed as necrotic cells at 2.5 uM incubated for 48 hrs by Annexin V-FITC/propidium iodide staining based flow cytometric analysis (reference value: 3.53%); type: functional
NCI-H3122 [17] = experiment: Induction of apoptosis in human NCI-H3122 cells assessed as necrotic cells at 0.312 uM incubated for 48 hrs by Annexin V-FITC/propidium iodide staining based flow cytometric analysis (reference value: 3.53%); type: functional
NCI-H3122 [18] = experiment: Cell cycle arrest in human NCI-H3122 cells assessed as accumulation of cells at G2/M phase at 1.25 uM incubated for 24 hrs by propidium iodide staining based flow cytometric analysis (reference value: 18.55%); type: functional
NCI-H2228 [19] = experiment: Antiproliferative activity against human NCI-H2228 cells assessed as inhibition of cell growth pretreated with GSH followed by compound addition and incubated for 3 to 5 days by MTT assay; type: functional, cell-based
NCI-H3122 [20] = experiment: Cell cycle arrest in human NCI-H3122 cells assessed as accumulation of cells at S phase at 0.312 uM incubated for 24 hrs by propidium iodide staining based flow cytometric analysis (reference value: 34.86%); type: functional
NCI-H3122 [21] = experiment: Induction of apoptosis in human NCI-H3122 cells assessed as late apoptotic cells at 2.5 uM incubated for 48 hrs by Annexin V-FITC/propidium iodide staining based flow cytometric analysis (reference value: 1.73%); type: functional
NCI-H3122 [22] = experiment: Induction of apoptosis in human NCI-H3122 cells assessed as early apoptotic cells at 2.5 uM incubated for 48 hrs by Annexin V-FITC/propidium iodide staining based flow cytometric analysis (reference value: 0.50%); type: functional
NCI-H3122 [23] = experiment: Cell cycle arrest in human NCI-H3122 cells assessed as accumulation of cells at G0/G1 phase at 0.625 uM incubated for 24 hrs by propidium iodide staining based flow cytometric analysis (reference value: 45.91%); type: functional
[24] = Cytotoxicity against human L02 cells assessed as inhibition of cell growth pretreated with GSH followed by compound addition and incubated for 3 to 5 days by MTT assay; type: toxicity, cell-based
NCI-H3122 [25] = experiment: Cell cycle arrest in human NCI-H3122 cells assessed as accumulation of cells at S phase at 1.25 uM incubated for 24 hrs by propidium iodide staining based flow cytometric analysis (reference value: 34.86%); type: functional
NCI-H3122 [26] = experiment: Cell cycle arrest in human NCI-H3122 cells assessed as accumulation of cells at G0/G1 phase at 1.25 uM incubated for 24 hrs by propidium iodide staining based flow cytometric analysis (reference value: 45.91%); type: functional
NCI-H3122 [27] = experiment: Cell cycle arrest in human NCI-H3122 cells assessed as accumulation of cells at G0/G1 phase at 0.312 uM incubated for 24 hrs by propidium iodide staining based flow cytometric analysis (reference value: 45.91%); type: functional
NCI-H3122 [28] = experiment: Induction of apoptosis in human NCI-H3122 cells assessed as viable cells at 0.312 uM incubated for 48 hrs by Annexin V-FITC/propidium iodide staining based flow cytometric analysis (reference value: 94.19%); type: functional; conditions: read-out: Activity
NCI-H3122 [29] = experiment: Cell cycle arrest in human NCI-H3122 cells assessed as accumulation of cells at G2/M phase at 0.312 uM incubated for 24 hrs by propidium iodide staining based flow cytometric analysis (reference value: 18.55%); type: functional
NCI-H3122 [30] = experiment: Induction of apoptosis in human NCI-H3122 cells assessed as early apoptotic cells at 0.312 uM incubated for 48 hrs by Annexin V-FITC/propidium iodide staining based flow cytometric analysis (reference value: 0.50%); type: functional
NCI-H3122 [31] = experiment: Induction of apoptosis in human NCI-H3122 cells assessed as early apoptotic cells at 0.625 uM incubated for 48 hrs by Annexin V-FITC/propidium iodide staining based flow cytometric analysis (reference value: 0.50%); type: functional
NCI-H3122 [32] = experiment: Cell cycle arrest in human NCI-H3122 cells assessed as accumulation of cells at S phase at 2.5 uM incubated for 24 hrs by propidium iodide staining based flow cytometric analysis (reference value: 34.86%); type: functional
NCI-H3122 [33] = experiment: Cell cycle arrest in human NCI-H3122 cells assessed as accumulation of cells at S phase at 0.625 uM incubated for 24 hrs by propidium iodide staining based flow cytometric analysis (reference value: 34.86%); type: functional
NCI-H3122 [34] = experiment: Induction of apoptosis in human NCI-H3122 cells assessed as viable cells at 0.625 uM incubated for 48 hrs by Annexin V-FITC/propidium iodide staining based flow cytometric analysis (reference value: 94.19%); type: functional; conditions: read-out: Activity
NCI-H3122 [35] = experiment: Induction of apoptosis in human NCI-H3122 cells assessed as early apoptotic cells at 1.25 uM incubated for 48 hrs by Annexin V-FITC/propidium iodide staining based flow cytometric analysis (reference value: 0.50%); type: functional
NCI-H1299 [36] = experiment: Antiproliferative activity against human NCI-H1299 cells assessed as inhibition of cell growth pretreated with GSH followed by compound addition and incubated for 3 to 5 days by MTT assay; type: functional, cell-based
NCI-H3122 [37] = experiment: Induction of apoptosis in human NCI-H3122 cells assessed as necrotic cells at 0.625 uM incubated for 48 hrs by Annexin V-FITC/propidium iodide staining based flow cytometric analysis (reference value: 3.53%); type: functional
NCI-H3122 [38] = experiment: Cell cycle arrest in human NCI-H3122 cells assessed as accumulation of cells at G2/M phase at 0.625 uM incubated for 24 hrs by propidium iodide staining based flow cytometric analysis (reference value: 18.55%); type: functional

Protein cereblon/Cyclin-dependent kinase 6 (Homo sapiens), sequence (Q00534 whole entry, looked up): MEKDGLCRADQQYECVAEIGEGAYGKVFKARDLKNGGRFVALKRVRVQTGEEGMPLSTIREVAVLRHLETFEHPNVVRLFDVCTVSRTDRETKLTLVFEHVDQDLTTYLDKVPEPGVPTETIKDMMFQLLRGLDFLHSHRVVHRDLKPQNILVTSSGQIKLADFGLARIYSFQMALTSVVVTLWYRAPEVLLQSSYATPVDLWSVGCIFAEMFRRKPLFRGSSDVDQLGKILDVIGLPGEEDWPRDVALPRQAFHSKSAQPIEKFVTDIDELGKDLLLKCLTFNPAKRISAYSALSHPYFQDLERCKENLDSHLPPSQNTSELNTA
Protein cereblon/Cyclin-dependent kinase 6 (Homo sapiens), sequence (Q96SW2 whole entry, looked up): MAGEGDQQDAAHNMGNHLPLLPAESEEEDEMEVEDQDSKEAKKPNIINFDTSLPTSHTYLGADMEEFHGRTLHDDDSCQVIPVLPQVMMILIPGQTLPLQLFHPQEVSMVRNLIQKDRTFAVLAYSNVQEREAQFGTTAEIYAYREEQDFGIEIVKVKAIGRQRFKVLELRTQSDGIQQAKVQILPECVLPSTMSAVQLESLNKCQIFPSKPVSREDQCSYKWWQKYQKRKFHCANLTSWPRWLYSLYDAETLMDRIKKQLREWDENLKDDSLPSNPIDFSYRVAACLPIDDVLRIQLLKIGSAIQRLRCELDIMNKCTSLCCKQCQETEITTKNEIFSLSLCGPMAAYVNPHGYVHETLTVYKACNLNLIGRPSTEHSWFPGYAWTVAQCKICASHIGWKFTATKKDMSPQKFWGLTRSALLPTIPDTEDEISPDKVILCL

With `Cc1cc(Nc2ncc(Cl)c(Nc3ccccc3S(=O)(=O)C(C)C)n2)c(OC(C)C)cc1C1CCNCC1` [CERITINIB] the pIC50 (NCI-H1299 [1]) was 5.76, the Activity (NCI-H3122 [2]) was 6.24% and the viability at 2.5 µM (NCI-H3122 [3]) was 87.4%. The Activity (NCI-H3122 [4]) was 4.45%, the Activity [5] was “inactive” and the pIC50 [6] was 5.45. The Activity (NCI-H3122 [7]) was 24.08%, the pIC50 (NCI-H2228 [8]) was 6.24 and the viability at 1.25 µM (NCI-H3122 [9]) was 87.3%. It also gave an Activity (NCI-H3122 [10]) of 60.69%, an Activity (NCI-H3122 [11]) of 3.61% and a pIC50 (NCI-H3122 [12]) of 7.22. It also gave an Activity (NCI-H3122 [13]) of 10.8%, an Activity (NCI-H3122 [14]) of 5.87% and a pIC50 (NCI-H3122 [15]) of 7.22. For the same compound, the Activity (NCI-H3122 [16]) was 1.93%, the Activity (NCI-H3122 [17]) was 4.19% and the Activity (NCI-H3122 [18]) was 28.18%. It also gave a pIC50 (NCI-H2228 [19]) of 6.23, an Activity (NCI-H3122 [20]) of 12.62% and an Activity (NCI-H3122 [21]) of 6.94%. It also gave an Activity (NCI-H3122 [22]) of 3.86%, an Activity (NCI-H3122 [23]) of 57.79% and a pIC50 [24] of 5.99. The Activity (NCI-H3122 [25]) was 15.21%, the Activity (NCI-H3122 [26]) was 55.92% and the Activity (NCI-H3122 [27]) was 52.82%. It also gave a viability at 0.312 µM (NCI-H3122 [28]) of 91.3%, an Activity (NCI-H3122 [29]) of 33.92% and an Activity (NCI-H3122 [30]) of 0.91%. The Activity (NCI-H3122 [31]) was 1.88%, the Activity (NCI-H3122 [32]) was 14.93% and the Activity (NCI-H3122 [33]) was 14.15%. It also gave a viability at 0.625 µM (NCI-H3122 [34]) of 88.1%, an Activity (NCI-H3122 [35]) of 1.99% and a pIC50 (NCI-H1299 [36]) of 5.79. The Activity (NCI-H3122 [37]) was 4.19% and the Activity (NCI-H3122 [38]) was 27.27%.
